The target of data set [1] is human MDR1-encoded P-gp (L-MDR1 cells) (Homo sapiens, UniProt P08183). As to the kind of experiment: Uptake (intracellular concentration) of digoxin and ginsenosides in L-MDR1 cells. It is filed as in vitro ADME. How it is done:
(§1) LLC-PK1 cells, a cell line lacking P-gp, and the derived cell line L-MDR1, which over-express human MDR1-encoded P-gp, were grown in minimum essential medium with supplements at 37°C, 5% CO2, and 95% humidity. LLC-PK1 and L-MDR1 cells were seeded at a density of 12×10^6 cells per 150-cm^2 flask and grown for 7 days in medium 199 supplemented with 2 mM glutamine, 10% fetal bovine serum, 10 mg/500 mL of streptomycin, and 10,000 IU/500 mL of penicillin. To ensure a constant expression level of transport protein, L-MDR1 cells were grown in the presence of 640 nM vincristine. Cells were grown as monolayer on polycarbonate membrane filters (Transwell; Costar Corporation, Cambridge, MA) as outlined previously. Transepithelial resistance was measured in each well using a Millicell ERS ohmmeter (Millipore, Bedford, MA); wells registering a resistance of 200 ohms or greater, after correcting for the resistance obtained in control blank wells, were used in the transport experiments.
(§2) LLC-PK1 and L-MDR1 cells were incubated with SLE (2.0 and 10.0 µg/mL) or verapamil (10 µM) for 1.0 h, and then were washed to discard SLE or verapamil before adding 100 µg/mL of GE. The accumulation of GE lasted for 2 h, and the intracellular concentrations of ginsenosides were measured by LC/MS. All experiments were conducted in triplicate.

A short description of data set [2]: Transport of digoxin and ginsenosides across Caco-2 cell monolayer (efflux ratio). The data set is classed as in vitro ADME, human. The note with it: human. How it is done:
(§3) Caco-2 cells were purchased from American Type Culture Collection (Manassas, VA), and were routinely cultured in Dulbecco's modified Eagle's medium supplemented with 10% fetal bovine serum, 1% nonessential amino acids, 1 mM sodium pyruvate, and 100 U/mL penicillin and streptomycin (Invitrogen, Carlsbad, CA). The cells were grown in an atmosphere of 5% CO2 at 37°C, and cell medium was changed every other day. Cells were seeded at a density of 4×10^4 cells per well in 24-well microporous polycarbonate insert filter plates (0.4-µm pore size) (Corning Costar plates; Corning Life Sciences, Lowell, MA) and grown for 15 days in Caco-2 growth medium. The medium was replaced every 3 to 4 days. Before running the assay, the culture medium was replaced by HBSS buffer supplemented with 10 mM Hepes and 20 mM glucose.
Caco-2 cells with a density of 1.2×10^5 cells/insert were seeded on a permeable polycarbonate insert (Millicell cell culture inserts, 0.4 µm pore size, 12 mm diameter; Millipore Corporation) in 24-well tissue culture plates and were used for the experiment 18 to 21 days after seeding. [^14C]Mannitol permeability and transepithelial electrical resistance measurements (Millicell-ERS epithelial volt-ohm meter; Millipore Corporation) were used to evaluate the integrity of Caco-2 cell monolayer. The monolayer used in transport studies had transepithelial electrical resistance values exceeding 600 Ω·cm^2, and the leakage of mannitol was less than 0.3% of the dose/h. Before transport initiation studies, the cell monolayer was first washed with warm HBSS (pH 7.4) twice. HBSS containing SLE (2.0 and 10.0 µg/mL) or 1% ethanol (control) was then loaded into both apical and basolateral chambers. After incubation at 37°C for 1.5 h, 100 µg/mL of GE was added to either the apical or basolateral side to evaluate the transport in absorptive and secretory directions, and the cell monolayer was incubated for another 2 h. 10 µM verapamil was used as a positive control inhibitor. At the designated time point, samples were taken from the receiving chamber for analysis. Ginsenosides were determined by LC-MS. All experiments were conducted in triplicate.
For the transport assay, the apparent permeability (P app, cm/s) in each direction (A→B and B→A) was calculated as follows, where A is the surface area of the membrane inserts (0.0804 cm^2), C 0 is the initial concentration of the compound applied in the donor compartment (2 µM), and △Q is the amount (micromoles) of compound transported over time △t (5 h = 18,000 s): [drawing 1]
The efflux ratio (ER) was a dimensionless number calculated as the ratio of the apparent permeability in the B→A direction divided by the apparent permeability in the A→B direction. [drawing 2]
(In general: Passage across Caco-2 layers is used to estimate intestinal permeability.)

Data set [3] has as its system LLC-PK1 cells (lacking P-gp). In words: Uptake (intracellular accumulation) of digoxin and ginsenosides in LLC-PK1 cells. The data set is classed as in vitro ADME. The note with it: for Effect of verapamil on intracellular accumulation: 10 µM verapamil; for Effect of SLE on intracellular accumulation: SLE 2.0 and 10.0 µg/mL. How it is done:
as §1, §2

Another data set has as its system Caco-2 cells. In words: Uptake of digoxin and ginsenosides in Caco-2 cells. It is filed as in vitro ADME, human. The note with it: for Effect of verapamil on uptake: 10 µM verapamil; for Effect of SLE on intracellular concentration: SLE 2.0 and 10.0 µg/mL, P<0.01. The procedure: as §3
Caco-2 cells were incubated with SLE (2.0 and 10.0 µg/mL) or verapamil (10 µM) for 1.0 h. Then the cells were washed with Hank's to discard SLE or verapamil before the addition of GE (100 µg/mL). The accumulation of ginsenosides lasted for 2 h, and the intracellular concentrations of ginsenosides were measured by LC/MS. All experiments were conducted in triplicate.

Setting [4] is: pH 7.4, Caco-2 cell monolayer, absence of inhibitor, GE 100 µg/mL, read-out: Efflux ratio.

Read-outs that look alike come from different tables or passages of the source.

Chain of human MDR1-encoded P-gp (L-MDR1 cells) (P08183 whole entry): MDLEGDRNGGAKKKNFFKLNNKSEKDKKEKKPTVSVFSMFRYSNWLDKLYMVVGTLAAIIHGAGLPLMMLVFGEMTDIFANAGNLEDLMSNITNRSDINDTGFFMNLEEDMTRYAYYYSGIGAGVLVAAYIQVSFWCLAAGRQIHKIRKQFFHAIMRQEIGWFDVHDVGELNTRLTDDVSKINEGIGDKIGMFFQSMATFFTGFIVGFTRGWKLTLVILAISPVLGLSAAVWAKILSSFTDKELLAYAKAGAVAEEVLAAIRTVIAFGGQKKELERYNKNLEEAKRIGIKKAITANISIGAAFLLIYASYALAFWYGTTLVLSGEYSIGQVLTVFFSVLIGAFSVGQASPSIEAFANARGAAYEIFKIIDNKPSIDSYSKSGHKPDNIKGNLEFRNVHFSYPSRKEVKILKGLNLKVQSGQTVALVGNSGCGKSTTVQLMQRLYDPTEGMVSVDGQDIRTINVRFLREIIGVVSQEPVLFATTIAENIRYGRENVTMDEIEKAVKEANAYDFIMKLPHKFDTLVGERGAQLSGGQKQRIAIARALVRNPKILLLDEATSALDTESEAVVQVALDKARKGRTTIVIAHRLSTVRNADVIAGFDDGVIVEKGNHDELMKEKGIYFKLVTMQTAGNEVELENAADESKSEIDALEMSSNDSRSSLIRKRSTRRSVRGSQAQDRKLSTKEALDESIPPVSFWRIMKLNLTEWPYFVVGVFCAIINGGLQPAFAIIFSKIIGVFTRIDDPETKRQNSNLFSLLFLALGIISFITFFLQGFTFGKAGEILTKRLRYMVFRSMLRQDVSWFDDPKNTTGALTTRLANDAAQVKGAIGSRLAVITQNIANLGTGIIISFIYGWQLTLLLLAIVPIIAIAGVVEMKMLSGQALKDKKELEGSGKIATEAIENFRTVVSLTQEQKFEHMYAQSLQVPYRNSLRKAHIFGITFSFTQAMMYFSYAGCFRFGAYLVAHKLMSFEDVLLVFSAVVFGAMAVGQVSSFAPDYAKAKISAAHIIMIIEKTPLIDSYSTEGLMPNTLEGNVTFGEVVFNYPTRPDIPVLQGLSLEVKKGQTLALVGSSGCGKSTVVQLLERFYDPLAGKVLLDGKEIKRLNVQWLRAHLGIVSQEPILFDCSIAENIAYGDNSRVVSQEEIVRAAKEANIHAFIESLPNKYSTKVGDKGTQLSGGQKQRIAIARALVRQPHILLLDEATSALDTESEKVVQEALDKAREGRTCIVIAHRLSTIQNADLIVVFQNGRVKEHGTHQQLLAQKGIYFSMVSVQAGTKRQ

For `C[C@H]1O[C@@H](O[C@H]2[C@@H](O)C[C@H](O[C@H]3[C@@H](O)C[C@H](O[C@H]4CC[C@@]5(C)[C@H](CC[C@@H]6[C@@H]5C[C@@H](O)[C@]5(C)[C@@H](C7=CC(=O)OC7)CC[C@]65O)C4)O[C@@H]3C)O[C@@H]2C)C[C@H](O)[C@@H]1O` [Digoxin, digoxin, reference compound], the “Increase of intracellular concentration by SLE” value (shortened to “Increase”) in data set [1] (2.0 µg/mL SLE) came out at 2.7 fold; in data set [1] (10.0 µg/mL SLE) it was 3.6 fold. Moreover, the “Enhancement of uptake level by verapamil” value in data set [1] (10 µM verapamil, P<0.05) is 3.2 fold. Further, the efflux ratio at 2 h, 100 µg/mL in data set [2] (setting [4]) was 3.23. Besides, the “Effect of verapamil on intracellular accumulation” value in data set [3] is “no significant difference”. For the same compound, in data set [3], the “Effect of SLE on intracellular accumulation” value is “no significant difference”. The “Effect of verapamil on uptake” value in the data set with Caco-2 cells is “significantly enhanced”.

Take `CC(C)=CCC[C@](C)(O[C@@H]1O[C@H](CO[C@@H]2O[C@H](CO)[C@@H](O)[C@H](O)[C@H]2O)[C@@H](O)[C@H](O)[C@H]1O)[C@H]1CC[C@]2(C)[C@@H]1[C@H](O)C[C@@H]1[C@@]3(C)CC[C@H](O[C@@H]4O[C@H](CO)[C@@H](O)[C@H](O)[C@H]4O[C@@H]4O[C@H](CO)[C@@H](O)[C@H](O)[C@H]4O)C(C)(C)[C@@H]3CC[C@]12C` [Rb1, ginsenoside Rb1]: the “Increase” value in data set [1] (2.0 µg/mL SLE) worked out at 2.9 fold. In addition, in data set [1] (10.0 µg/mL SLE), the “Increase” value is given as 5.1 fold. Further, the efflux ratio at 2 h, 100 µg/mL in data set [2] (setting [4]) was 3.77. For the same compound, in data set [3], the “Effect of verapamil on intracellular accumulation” value is “no significant difference” and the “Effect of SLE on intracellular accumulation” value is recorded as “no significant difference”. In the data set with Caco-2 cells, the “Effect of verapamil on uptake” value is “significantly enhanced” and the “Effect of SLE on intracellular concentration” value was “concentration dependently increase”.

Take `CC(C)=CCC[C@](C)(O[C@@H]1O[C@H](CO[C@@H]2OC[C@H](O)[C@H](O)[C@H]2O)[C@@H](O)[C@H](O)[C@H]1O)[C@H]1CC[C@]2(C)[C@@H]1[C@H](O)C[C@@H]1[C@@]3(C)CC[C@H](O[C@@H]4O[C@H](CO)[C@@H](O)[C@H](O)[C@H]4O[C@@H]4O[C@H](CO)[C@@H](O)[C@H](O)[C@H]4O)C(C)(C)[C@@H]3CC[C@]12C` [Rb2, ginsenoside Rb2]: the “Increase” value in data set [1] (2.0 µg/mL SLE) was determined as 2.0 fold. Moreover, the “Increase” value in data set [1] (10.0 µg/mL SLE) is on record as 3.7 fold. In data set [3], the “Effect of verapamil on intracellular accumulation” value is reported as “no significant difference” and the “Effect of SLE on intracellular accumulation” value is listed as “no significant difference”. Further, in the data set on Caco-2 cells, the “Effect of verapamil on uptake” value was “significantly enhanced” and the “Effect of SLE on intracellular concentration” value is on record as “concentration dependently increase”.

Take `CC(C)=CCC[C@](C)(O[C@@H]1O[C@H](CO[C@@H]2O[C@@H](CO)[C@H](O)[C@H]2O)[C@@H](O)[C@H](O)[C@H]1O)[C@H]1CC[C@]2(C)[C@@H]1[C@H](O)C[C@@H]1[C@@]3(C)CC[C@H](O[C@@H]4O[C@H](CO)[C@@H](O)[C@H](O)[C@H]4O[C@@H]4O[C@H](CO)[C@@H](O)[C@H](O)[C@H]4O)C(C)(C)[C@@H]3CC[C@]12C` [Rc, ginsenoside Rc]: the “Increase” value came out at 1.9 fold in data set [1] (2.0 µg/mL SLE) and 3.5 fold in data set [1] (10.0 µg/mL SLE). The efflux ratio at 2 h, 100 µg/mL in data set [2] (Caco-2, pH 7.4) turned out to be 4.36. In addition, the “Effect of verapamil on intracellular accumulation” value in data set [3] was “no significant difference”. In data set [3], the “Effect of SLE on intracellular accumulation” value is “no significant difference”.

For the compound `CC(C)=CCC[C@](C)(O[C@@H]1O[C@H](CO)[C@@H](O)[C@H](O)[C@H]1O)[C@H]1CC[C@]2(C)[C@@H]1[C@H](O)C[C@@H]1[C@@]3(C)CC[C@H](O[C@@H]4O[C@H](CO)[C@@H](O)[C@H](O)[C@H]4O[C@@H]4O[C@H](CO)[C@@H](O)[C@H](O)[C@H]4O)C(C)(C)[C@@H]3CC[C@]12C` [Rd, ginsenoside Rd], in data set [1] (2.0 µg/mL SLE), the “Increase” value is 2.9 fold. In addition, the “Increase” value in data set [1] (10.0 µg/mL SLE) turned out to be 4.3 fold. Moreover, the efflux ratio at 2 h, 100 µg/mL in data set [2] (setting [4]) worked out at 4.47. For the same compound, in data set [3], the “Effect of verapamil on intracellular accumulation” value is “no significant difference” and the “Effect of SLE on intracellular accumulation” value is listed as “no significant difference”. Moreover, in the data set with Caco-2 cells, the “Effect of verapamil on uptake” value is recorded as “significantly enhanced” and the “Effect of SLE on intracellular concentration” value is reported as “concentration dependently increase”.

Values taken from article PMC4055595, “Pharmacokinetic Compatibility of Ginsenosides and Schisandra Lignans in Shengmai-san: From the Perspective of P-Glycoprotein” (PLoS ONE, 2014).
